Patent publication US9975854B2, “Benzomorphan analogs and use thereof” (Purdue Pharma L.P., priority 2014, dated 2018)
Read-outs that look alike come from different tables or passages of the source.

Target: μ-opioid receptor (Homo sapiens (Human), UniProt P35372)
Test: μ-opioid receptor [35S]GTPγS functional assay, HEK-293 or CHO cells
Type: biochemical
Conditions: for Emax: relative to DAMGO
Experimental: [^35S]GTPγS functional assays were conducted using freshly thawed μ-receptor membranes prepared in-house from a cell line expressing recombinant opioid receptor in a HEK-293, CHO or U-2 OS cell background, or purchased from a commercial source (Perkin Elmer, Shelton, Conn.; or DiscovRx, Fremont, Calif.). Assay reactions were prepared by sequentially adding the following reagents to binding buffer (100 mM NaCl, 10 mM MgCl2, 20 mM HEPES, pH 7.4) on ice (final concentrations indicated): membrane protein (0.026 mg/mL), saponin ([…]), GDP ([…]) and [^35S]GTPγS (0.20 nM; Perkin Elmer, Shelton, Conn.). The prepared membrane solution (190 μl/well) was transferred to 96-shallow well polypropylene plates containing 10 μl of 20× concentrated stock solutions of the agonist [D-Ala^2, N-methyl-Phe^4 Gly-ol^5]-enkephalin (DAMGO) prepared in dimethyl sulfoxide (DMSO). Plates were incubated for 30 min at about 25° C. with shaking. Reactions were terminated by rapid filtration onto 96-well Unifilter GF/B filter plates (Perkin Elmer, Shelton, Conn.) using a 96-well tissue harvester (Perkin Elmer, Shelton, Conn.) followed by three filtration washes with 200 μl of ice-cold wash buffer (10 mM NaH2PO4, 10 mM Na2HPO4, pH 7.4). Filter plates were subsequently dried at 50° C. for 2-3 hr. BetaScint scintillation cocktail (Perkin Elmer, Shelton, Conn.) was added (50 μl/well) and plates were counted using a Packard Top-Count for 1 min/well. Data were analyzed using the sigmoidal dose-response curve fitting functions in GraphPad PRISM v. 3.0, or an in-house function for non-linear, sigmoidal dose-response curve-fitting.
μ GTP EC50 is the concentration of a compound providing 50% of the maximal response for the compound at a μ-opioid receptor.
μ GTP Emax (%) is the maximal effect elicited by a compound relative to the effect elicited by DAMGO, a standard p agonist. Generally, the μ GTP Emax (%) value measures the efficacy of a compound to treat or prevent pain or other Conditions.
In TABLE 4, activity response of certain Compounds of the Invention to the μ- and κ-opioid receptors was determined as described above for functional assays using HEK-293 or CHO cells.

[1] = HEK-293 or CHO cells, read-out: GTPγS μ EC50
[2] = HEK-293 or CHO cells, bound given in uM, read-out: GTPγS μ EC50

Row | SMILES | EC50 | Emax (HEK-293 or CHO cells) | EC50 [1] | EC50 [2]
1 | CN1CC[C@@]2(C)c3cc(C(N)=O)ccc3C[C@@H]1C2(O)O [Compound 118, (2R,6S)-11,11-dihydroxy-3,6-dimethyl-1,2,3,4,5,6-hexahydro-2,6-methanobenzo[d]azocine-8-carboxamide] | 17 ± 0.566 µM | 6.56 ± 0.6% |  | 
2 | CCN(C(=O)Nc1ccc(C#N)cc1)[C@@H]1[C@H]2Cc3ccc(O)cc3[C@]1(C)CCN2C [Compound 93, 3-(4-cyanophenyl)-1-ethyl-1-((2R,6S,11 S)-8-hydroxy-3,6-dimethyl-1,2,3,4,5,6-hexahydro-2,6-methanobenzo[d]azocin-11-yl)urea] |  | 32 ± 2.48% | 2.29 ± 0.404 µM | 
3 | CN1CC[C@@]2(C)c3cc(O)ccc3C[C@@H]1[C@@H]2N(C)CC1CCN(C(=O)C(C)(C)C)CC1 [Compound 52, 1-(4-((((2R,6S,11R)-8-hydroxy-3,6-dimethyl-1,2,3,4,5,6-hexahydro-2,6-methanobenzo[d]azocin-11-yl)(methyl)amino)methyl)piperidin-1-yl)-2,2-dimethylpropan-1-one] |  | 31.3 ± 0.88% | 0.00122 ± 0.0002 µM | 
4 | CN1CC[C@@]2(C)c3cc(C(N)=O)ccc3C[C@@H]1[C@@H]2N(C)C(=O)Cc1ccccc1 [Compound 124, (2R,6S,11R)-3,6-dimethyl-11-(N-methyl-2-phenylacetamido)-1,2,3,4,5,6-hexahydro-2,6-methanobenzo[d]azocine-8-carboxamide] |  | 81.6 ± 3.37% | 3.54 ± 0.48 µM | 
5 | CN1CC[C@@]2(C)c3cc(O)ccc3C[C@@H]1[C@H]2N(C)C(=O)Nc1nc2cc(F)ccc2s1 [Compound 82, 3-(5-fluorobenzo[d]thiazol-2-yl)-1-((2R,6S,11S)-8-hydroxy-3,6-dimethyl-1,2,3,4,5,6-hexahydro-2,6-methanobenzo[d]azocin-11-yl)-1-methylurea] |  | 1% |  | > 20 µM
6 | COc1ccc2c(c1)[C@]1(C)CCN(C)[C@H](C2)[C@@H]1N(C)C(=O)Nc1nc2ccccc2[nH]1 [Compound 111, 3-(1H-benzo[d]imidazol-2-yl)-1-((2R,6S,11R)-8-methoxy-3,6-dimethyl-1,2,3,4,5,6-hexahydro-2,6-methanobenzo[d]azocin-11-yl)-1-methylurea] |  | 67.4 ± 3.48% | 0.79 ± 0.0985 µM | 
7 | CN1CC[C@@]2(C)c3cc(O)ccc3C[C@@H]1[C@H]2N(CCc1ccc(F)cc1)CC(=O)O [Compound 72, N-(4-fluorophenethyl)-N-((2R,6S,11S)-8-hydroxy-3,6-dimethyl-1,2,3,4,5,6-hexahydro-2,6-methanobenzo[d]azocin-11-yl)glycine] |  | 101 ± 2.91% | 0.338 ± 0.0609 µM | 
8 | CN1CC[C@@]2(C)c3cc(O)ccc3C[C@@H]1[C@@H]2N(C)CC1CCN(S(C)(=O)=O)CC1 [Compound 54, (2R,6S,11R)-3,6-dimethyl-11-(methyl((1-(methylsulfonyl)piperidin-4-yl)methyl)amino)-1,2,3,4,5,6-hexahydro-2,6-methanobenzo[d]azocin-8-ol] |  | 74 ± 3.15% | 0.00544 ± 0.00235 µM | 
9 | CN1CC[C@@]2(C)c3cc(O)ccc3C[C@@H]1[C@@H]2N(CCc1ccc(F)cc1)CC(N)=O [Compound 74, 2-((4-fluorophenethyl)-((2R,6S,11R)-8-hydroxy-3,6-dimethyl-1,2,3,4,5,6-hexahydro-2,6-methanobenzo[d]azocin-11-yl)amino)acetamide] |  | 83.2 ± 3.47% | 0.00112 ± 0.00017 µM | 
10 | CN1CC[C@@]2(C)c3cc(O)ccc3C[C@@H]1[C@@H]2N(C)S(=O)(=O)Cc1ccccc1 [Compound 100, N-((2R,6S,11R)-8-hydroxy-3,6-dimethyl-1,2,3,4,5,6-hexahydro-2,6-methanobenzo[d]azocin-11-yl)-N-methyl-1-phenylmethane-sulfonamide] |  | 25 ± 1.53% | 8.95 ± 2.04 µM | 
11 | CN1CCC2(C)c3cc(O)ccc3C[C@@H]1C2NC(=O)Cc1ccsc1 (stereo in doubt) [Compound 31, N-((2R,6S,11S)-8-hydroxy-3,6-dimethyl-1,2,3,4,5,6-hexahydro-2,6-methanobenzo[d]azocin-11-yl)-2-(thiophen-3-yl)acetamide] |  | 1% |  | > 20 µM
12 | CN1CC[C@@]2(C)c3cc(C(N)=O)ccc3C[C@@H]1[C@@H]2N(C)CCc1ccccc1 [Compound 123, (2R,6S,11R)-3,6-dimethyl-11-(methyl(phenethyl)amino)-1,2,3,4,5,6-hexahydro-2,6-methanobenzo[d]azocine-8-carboxamide] |  | 97.4 ± 0.2% | 0.0233 ± 0.00447 µM | 
13 | COc1ccc2c(c1)[C@]1(C)CCN(C)[C@H](C2)[C@@H]1N(C)C(=O)CN1CCNC(=O)C1 [Compound 44, N-((2R,6S,11R)-8-methoxy-3,6-dimethyl-1,2,3,4,5,6-hexahydro-2,6-methanobenzo[d]azocin-11-yl)-N-methyl-2-(3-oxopiperazin-1-yl)acetamide] |  | 43 ± 2.52% |  | > 20 µM
14 | CN1CC[C@@]2(C)c3cc(O)ccc3C[C@@H]1[C@@H]2NCCOc1ccccc1 [Compound 15, (2R,6S,11R)-3,6-dimethyl-11-((2-phenoxyethyl)amino)-1,2,3,4,5,6-hexahydro-2,6-methanobenzo[d]azocin-8-ol] |  | 97.7 ± 1.76% | 0.124 ± 0.0204 µM | 
15 | CN1CC[C@@]2(C)c3cc(O)ccc3C[C@@H]1[C@H]2NCC1(O)CCCCC1 [Compound 13, (2R,6S,11S)-11-(((1-hydroxycyclohexyl)methyl)amino)-3,6-dimethyl-1,2,3,4,5,6-hexahydro-2,6-methano-benzo[d]azocin-8-ol] |  | 45.7 ± 1.76% | 1.07 ± 0.172 µM | 
16 | CN1CC[C@@]2(C)c3cc(C(N)=O)ccc3C[C@@H]1[C@@H]2NCCc1ccccc1 [Compound 114, (2R,6S,11R)-3,6-dimethyl-11-(phenethylamino)-1,2,3,4,5,6-hexahydro-2,6-methanobenzo[d]azocine-8-carboxamide] |  | 71 ± 2.18% | 8.62 ± 0.751 µM | 
17 | CN1CC[C@@]2(C)c3cc(O)ccc3C[C@@H]1[C@@H]2N(C)CC1CCN(C(=O)NC(C)(C)C)CC1 [Compound 95, N-(tert-butyl)-4-((((2R,6S,11R)-8-hydroxy-3,6-dimethyl-1,2,3,4,5,6-hexahydro-2,6-methanobenzo[d]azocin-11-yl)(methyl)amino)methyl)piperidine-1-carboxamide] |  | 17.7 ± 2.6% | 0.008 ± 0.00164 µM | 
18 | CN1CC[C@@]2(C)c3cc(O)ccc3C[C@@H]1[C@@H]2NCc1ccccc1 [Compound 108, (2R,6S,11R)-11-(benzylamino)-3,6-dimethyl-1,2,3,4,5,6-hexahydro-2,6-methanobenzo[d]azocin-8-ol] |  | 17.1 ± 0.67% | 11.7 ± 3.29 µM | 
19 | CCN(C(=O)Nc1ccc(C#N)cc1)[C@H]1[C@H]2Cc3ccc(O)cc3[C@]1(C)CCN2C [Compound 91, 3-(4-cyanophenyl)-1-ethyl-1-((2R,6S,11R)-8-hydroxy-3,6-dimethyl-1,2,3,4,5,6-hexahydro-2,6-methanobenzo[d]azocin-11-yl)urea] |  | 75.3 ± 2.19% | 0.0463 ± 0.0041 µM | 
20 | CN1CC[C@@]2(C)c3cc(O)ccc3C[C@@H]1[C@H]2N(CCO)CCc1ccc(F)cc1 [Compound 77, (2R,6S,11S)-11-((4-fluorophenethyl)(2-hydroxyethyl)amino)-3,6-dimethyl-1,2,3,4,5,6-hexahydro-2,6-methanobenzo[d]azocin-8-ol] |  | 87 ± 1.73% | 0.00796 ± 0.00069 µM | 
21 | CN1CC[C@@]2(C)c3cc(O)ccc3C[C@@H]1[C@H]2NCCCc1ccccc1 [Compound 109, (2R,6S,11S)-3,6-dimethyl-11-((3-phenylpropyl)amino)-1,2,3,4,5,6-hexahydro-2,6-methanobenzo-[d]azocin-8-ol] |  | 59.6 ± 2.5% | 0.649 ± 0.114 µM | 
22 | CCn1c(NC(=O)N(C)[C@H]2[C@H]3Cc4ccc(O)cc4[C@]2(C)CCN3C)nc2ccccc21 [Compound 112, 3-(1-ethyl-1H-benzo[d]imidazol-2-yl)-1-((2R,6S,11R)-8-hydroxy-3,6-dimethyl-1,2,3,4,5,6-hexahydro-2,6-methanobenzo[d]azocin-11-yl)-1-methylurea] |  | 84.2 ± 0.94% | 0.0141 ± 0.00052 µM | 
23 | CN1CCC2(C)c3cc(O)ccc3C[C@@H]1C2NS(=O)(=O)Cc1ccccc1 (stereo in doubt) [Compound 101, N-((2R,6S,11S)-8-hydroxy-3,6-dimethyl-1,2,3,4,5,6-hexahydro-2,6-methanobenzo[d]azocin-11-yl)-1-phenylmethanesulfonamide] |  | 6 ± 4.06% |  | > 20 µM
24 | CN1CC[C@@]2(C)c3cc(O)ccc3C[C@@H]1[C@@H]2NC(=O)Nc1ccc(C#N)cc1 [Compound 27, 1-(4-Cyanophenyl)-3-((2R,6S,11R)-8-hydroxy-3,6-dimethyl-1,2,3,4,5,6-hexahydro-2,6-methanobenzo[d]azocin-11-yl)urea] |  | 0% |  | > 20 µM
